Measured values taken from patent publication US20140314787A1, “Treatment for neurodegenerative diseases” (NOVARTIS FORSCHUNGSSTIFTUNG, ZWEIGNIEDERLASSUNG, FRIEDRICH …, priority 2011, published 2014).

Columns and labels:
[1] = test system: FSOD mice (mutant SOD1(G93A)); assay: climb test of motor performance in FSOD mice; type: in vivo; details: for motor performance: figure legend (FIG. 9, FIG. 10)
Protocol: Climb test: Neurodegenerative status of the mice was tested using a climb test device developed by some of the inventors. This device is based on a flappable wire meshwork platform (10×10 cm) suspended from one corner by a rigid boom. The platform is suspended about 40 cm above a surface. The platform is fully open and the test is performed in ambient light. During the test, mice are prevented of climbing the boom by a transparent plastic disk. For the performance of the test, mice were gently transferred to the platform and allowed to explore it for 2 minutes. […] As soon as the mice reached the upper surface of the grid (all four limbs on the same side), the grid was gently flipped over so that the mice were not be allowed to rest. The number of performed climbs in the test period was counted, the test period being 11 minutes (5 min and 30 min variants have been tested as well). The climb movement to be performed by the mice involves a forceful yet brief push with fore- and hind-limbs, thus mimicking short-lived but powerful movements that are known to recruit fast motoneurons.
At day P27, mice were treated either with Eer-I (1 μg/g in 150 mM NaCl, s.c., daily) or with saline. Mice were tested at P29 and at P32.
On day P47 treatment was stopped and the mice were tested 2 days later.
Treatment dose was 1 μg/g in 150 mM NaCl, s.c., daily. Mice were treated and tested at baseline (p32), and thereafter tested in the climb test at 38, 43, 56 days of age.

VCP [2] = target: T1, VCP (Homo sapiens, UniProt P55072); details: literature (Chou T F et al. 2011); cited from earlier work
T1 sequence (P55072 whole entry): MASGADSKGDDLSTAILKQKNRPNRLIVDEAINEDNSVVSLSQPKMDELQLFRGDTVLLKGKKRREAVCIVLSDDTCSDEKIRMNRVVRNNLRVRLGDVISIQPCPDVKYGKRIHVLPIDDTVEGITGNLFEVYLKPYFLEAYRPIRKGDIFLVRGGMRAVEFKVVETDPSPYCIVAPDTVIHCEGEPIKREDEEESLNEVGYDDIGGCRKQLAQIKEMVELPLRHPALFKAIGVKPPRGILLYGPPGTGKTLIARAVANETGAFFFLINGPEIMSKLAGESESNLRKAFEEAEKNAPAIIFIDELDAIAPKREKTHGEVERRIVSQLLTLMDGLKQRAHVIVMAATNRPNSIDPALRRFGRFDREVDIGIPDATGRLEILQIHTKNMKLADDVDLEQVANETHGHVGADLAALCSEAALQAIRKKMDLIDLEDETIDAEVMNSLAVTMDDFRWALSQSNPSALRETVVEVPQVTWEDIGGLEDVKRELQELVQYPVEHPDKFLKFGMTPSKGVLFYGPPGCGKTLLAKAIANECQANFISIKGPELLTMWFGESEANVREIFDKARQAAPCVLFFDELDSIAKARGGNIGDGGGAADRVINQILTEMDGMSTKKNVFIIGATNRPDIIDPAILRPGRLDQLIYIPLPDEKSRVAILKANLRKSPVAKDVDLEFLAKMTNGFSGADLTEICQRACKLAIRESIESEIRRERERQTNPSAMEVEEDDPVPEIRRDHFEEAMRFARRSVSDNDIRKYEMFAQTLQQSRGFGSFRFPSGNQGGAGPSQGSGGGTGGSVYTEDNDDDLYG

[3] = test system: FSOD mice (mutant SOD1(G93A)); assay: grid test of motor performance / muscle strength in FSOD mice; type: in vivo
Protocol: Motor performance was assessed by grid test, a standard task for the quantification of muscle strength and neurological impairment.

[4] = body weight recording in treated mice; type: in vivo
Protocol: Body weight was recorded at P45, P65, P85 and then at 5-7 days intervals. Five mice per group were followed, representative individuals are shown.

[5] = test system: Mutant SOD1(G93A) transgenic mice; assay: survival of mutant SOD1(G93A) transgenic mice; type: in vivo
Protocol: Survival was determined up to the day of death or euthanasia (according to the termination criteria of a righting time >30 sec).

VCP [6] = assay: VCP immunostaining intensity in lumbar spinal cord motoneurons; type: in vivo, mice
Protocol: After washing in PBS, lumbar (L2-L5) spinal cord was cryoprotected overnight in 30% sucrose. Lumbar spinal cord was embedded in OCT and sectioned at 50 μm. Sections were blocked in PBS-3% BSA −0.3% Triton X 100, and incubated double-overnight at 4 C in the same buffer plus anti VCP monoclonal antibody (Affinity Bioreagents) diluted 1:10,000 and polyclonal anti VAChT (Sigma) 1:1000. Sections were then briefly washed with PBS and incubated for 120 min at RT with goat-anti-rabbit (Alexa 647, Invitrogen) or goat-anti-mouse (Alexa 488, Invitrogen). Confocal images were acquired using an Zeiss LSM700 microscope, fitted with a 20×air objective. Images were processed using Imaris software. For the analysis of VCP labeling intensities, data were acquired with identical confocal settings, ensuring that signals at the brightest cells were not saturated, and that background levels outside clusters were still detectable. Images were then analyzed quantitatively using Image-Pro 5 software (Media Cybernetics). Signal intensities were acquired within areas inside cells, excluding areas lacking signal; background levels outside cells were subtracted from these values.

VCP [7] = target: T1, VCP; details: literature (Wang Q et al. 2008, 2010); cited from earlier work
[8] = 1 μg/g s.c. daily from weaning (P20), vs untreated
[9] = FSOD mice treated from P20, s.c. daily
[10] = FSOD mice treated from P63, s.c. daily

Question: For O=[N+]([O-])C=Cc1ccc2c(c1)OCO2 [Syk-inhibitor III, 3,4-Methylenedioxy-β-nitrostyrene], which motor performance ([1]; FSOD mice) is on record?
Answer: The motor performance was “improves motor performance”.

Question: And the “performance in the climb test” value ([1]; two mice, 1 μg/g s.c. daily, baseline p32, tested at 38, 43, 56 days of age)?
Answer: The value was “markedly improved and reached the range of performance for WT mice”.

Question: And the “VCP inhibition (mode)” value (VCP [2])?
Answer: Its value is “substantial efficacy as an irreversible inhibitor of the D2 ATPase site on VCP”.

Question: What does the source list for c1ccc(CNc2nc(NCc3ccccc3)c3ccccc3n2)cc1 [DBEQ, N^2,N^4-Dibenzylquinazoline-2,4-diamine]?
Answer: motor performance ([1]; FSOD mice): improves motor performance; motor performance in the climb test ([1]; three FSOD mice, 1 μg/g s.c. daily after day 29, tested at P31, P34, 37 and 45): progressive improvement in motor performance reaching the range of wt mice; VCP inhibition (mode) (VCP [2]): reversible, ATP-competitive direct VCP inhibitor

Question: For CC1(C)C(N(O)C(=O)Nc2ccc(Cl)cc2)N(c2ccc(Cl)cc2)C(=O)N1CC(=O)NN=CC=Cc1ccc([N+](=O)[O-])o1 (stereo not shown) [Eer-I, 3-(4-Chlorophenyl)-4-[[[(4-chlorophenyl)amino]carbonyl]hydroxyamino]-5,5-dimethyl-2-oxo-1-imidazolidineacetic acid 2-[3-(5-nitro-2-furanyl)-2-propen-1-ylidene]hydrazide], which “grid test performance soon after beginning of treatment” value ([3]; 1 μg/g s.c. daily from P63) is on record?
Answer: The value was “fast improvement in performance”.

Question: And the “grid test performance vs untreated counterparts” value ([3]; 1 μg/g s.c. daily from P63)?
Answer: The value was “performed significantly better than their untreated counterparts”.

Question: And the “decline in muscle strength over time (grid test)” value [3, 8]?
Answer: The value was “significantly slower decline”.

Question: What about the “grid test performance at the earliest time point” value [3, 8] of the same molecule?
Answer: Its value is “better performance”.

Question: What about the motor disability ([3]; FIG. 3 legend) of the same molecule?
Answer: Its motor disability is “delays motor disability”.

Question: What about the climb performance ([1]; FSOD mice (n=4), 1 μg/g s.c. daily from P18, tested at P27, P37 and P47) of the same molecule?
Answer: The climb performance was “comparable to wt mice”.

Question: And the “climb performance upon resumption of the treatment” value ([1]; FSOD mice (n=4), after withdrawal)?
Answer: The value was “quickly improved”.

Question: What about the “treatment time until performance comparable with that before withdrawal” value ([1]; FSOD mice (n=4), resumption of treatment after withdrawal) of the same molecule?
Answer: The value was 2 to 5 days.

Question: And the “climb performance after 2 days of withdrawal of treatment” value ([1]; FSOD mice (n=4), treatment stopped on P47, tested at P49)?
Answer: Its value is “sharp drop in performance, down to a level comparable with that of untreated FSOD mice of the same age”.

Question: And the “climb test performance (climb scores)” value [1, 9]?
Answer: Its value is “markedly preserved performance, with climb scores comparable with WT mice”.

Question: And the “duration of stable climb test performance” value [1, 9]?
Answer: The value was “stable up to day P65”.

Question: And the “climb score at day P85” value [1, 10]?
Answer: Its value is “returning in the range of untreated FSOD mice”.

Question: What about the climb test performance [1, 10] of the same molecule?
Answer: Its climb test performance is “marked but transient improvement in performance”.

Question: And the “increase of climb score” value [1, 10]?
Answer: Its value is “up to four-fold”.

Question: And the “climb test performance after 5 days of treatment” value ([1]; FSOD mice, 1 μg/g s.c. daily from P27)?
Answer: Its value is “level comparable with wt”.

Question: What about the climb test performance ([1]; FSOD mice, 1 μg/g s.c. daily from P27, tested at P29 and P32, vs saline) of the same molecule?
Answer: Its climb test performance is “marked improvement in performance”.

Question: And the “performance in the climb test” value ([1]; FSOD mice, FIG. 4 legend)?
Answer: Its value is “markedly improve”.

Question: And the “performance in the climb test” value ([1]; FSOD mice, FIG. 7 legend)?
Answer: The value was “quickly restores performance”.

Question: And the body weight loss ([4]; FIG. 5 legend)?
Answer: Its body weight loss is “delays body weight loss”.

Question: And the “bodyweight of FSOD mice” value ([4]; 1 μg/g s.c. daily from P63)?
Answer: The value was “stabilized at a level lower than the littermates treated from weaning”.

Question: What about the “bodyweight of FSOD mice” value ([4]; 1 μg/g s.c. daily from weaning (P20)) of the same molecule?
Answer: Its value is “stable bodyweight until day P140-145”.

Question: What about the “body weight of wild type mice” value ([4]; wild type mice, 1 μg/g s.c. daily) of the same molecule?
Answer: Its value is “expected progressive increase in body weight”.

Question: And the “overt toxicity of the treatment” value ([4]; wild type mice, 1 μg/g s.c. daily, from body weight)?
Answer: The value was “lack of overt toxicity”.

Question: What about the “survival vs untreated mutant mice” value ([5]; 1 μg/g s.c. daily since weaning (P20), n=7 per group) of the same molecule?
Answer: Its value is “survived significantly longer”.

Question: What about the survival ([5]; FSOD mice, FIG. 6 legend) of the same molecule?
Answer: The survival was “prolongs FSOD mice survival”.

Question: And the “average cytoplasmic VCP staining intensity in motoneurons” value (VCP [6]; FSOD mice treated with Eer-I vs FSOD and WT controls, lumbar spinal cord)?
Answer: Its value is “significantly reduced (to an extent comparable with WT)”.

Question: And the VCP upregulation (VCP [6]; FSOD mice, FIG. 11 legend)?
Answer: Its VCP upregulation is “reverses VCP upregulation”.

Question: And the “degradation of target misfolded proteins whose translocation and disposal is dependent upon VCP” value (VCP [7])?
Answer: Its value is “prevent the degradation of target misfolded proteins”.
